The values below come from patent US12447153B2, “HER2 mutation inhibitors” (Array BioPharma Inc., priority 2021, dated 2025).

Data set [1] has as its target ErbB2 with Exon 20 YVMA insertion (HER2-YVMA) (Homo sapiens (Human), UniProt P04626, INS775YVMA). Briefly: Cellular Phosphorylation Assay, Assay 4 (constitutive ErbB2 phosphorylation, NIH 3T3 cells). The class given is cell-based.
In the next data set the target is EGFR (Homo sapiens (Human), UniProt P00533). As to the kind of experiment: ErbB Enzyme Assay (HTRF KinEASE-TK), Assay 3. The class given is biochemical.
The next data set concerns the target BCRP (Homo sapiens (Human), UniProt Q9UNQ0). Briefly: BCRP MDCKII efflux assay (Assay 7). The class given is in vitro ADME. The note with it: dog; efflux ratio Papp(B-A)/Papp(A-B), BCRP MDCKII cells; read-out: Assay 7 Pe Ratio. As to the method:
Assay conditions included with and without the BCRP-specific inhibitor, KO143, at a concentration of 0.3 μM to ascertain the contribution of BCRP to the efflux value of the test compound.
Final organic concentration in the assay was 1%.

The target in the next data set is EGFR wild type (EGFR WT) (Homo sapiens (Human), UniProt P00533). As to the kind of experiment: Cellular Phosphorylation Assay, Assay 5 (EGF-stimulated EGFR phosphorylation, NIH 3T3 cells). The class given is cell-based.
EGFR wild type (EGFR WT), sequence (P00533 25-1210): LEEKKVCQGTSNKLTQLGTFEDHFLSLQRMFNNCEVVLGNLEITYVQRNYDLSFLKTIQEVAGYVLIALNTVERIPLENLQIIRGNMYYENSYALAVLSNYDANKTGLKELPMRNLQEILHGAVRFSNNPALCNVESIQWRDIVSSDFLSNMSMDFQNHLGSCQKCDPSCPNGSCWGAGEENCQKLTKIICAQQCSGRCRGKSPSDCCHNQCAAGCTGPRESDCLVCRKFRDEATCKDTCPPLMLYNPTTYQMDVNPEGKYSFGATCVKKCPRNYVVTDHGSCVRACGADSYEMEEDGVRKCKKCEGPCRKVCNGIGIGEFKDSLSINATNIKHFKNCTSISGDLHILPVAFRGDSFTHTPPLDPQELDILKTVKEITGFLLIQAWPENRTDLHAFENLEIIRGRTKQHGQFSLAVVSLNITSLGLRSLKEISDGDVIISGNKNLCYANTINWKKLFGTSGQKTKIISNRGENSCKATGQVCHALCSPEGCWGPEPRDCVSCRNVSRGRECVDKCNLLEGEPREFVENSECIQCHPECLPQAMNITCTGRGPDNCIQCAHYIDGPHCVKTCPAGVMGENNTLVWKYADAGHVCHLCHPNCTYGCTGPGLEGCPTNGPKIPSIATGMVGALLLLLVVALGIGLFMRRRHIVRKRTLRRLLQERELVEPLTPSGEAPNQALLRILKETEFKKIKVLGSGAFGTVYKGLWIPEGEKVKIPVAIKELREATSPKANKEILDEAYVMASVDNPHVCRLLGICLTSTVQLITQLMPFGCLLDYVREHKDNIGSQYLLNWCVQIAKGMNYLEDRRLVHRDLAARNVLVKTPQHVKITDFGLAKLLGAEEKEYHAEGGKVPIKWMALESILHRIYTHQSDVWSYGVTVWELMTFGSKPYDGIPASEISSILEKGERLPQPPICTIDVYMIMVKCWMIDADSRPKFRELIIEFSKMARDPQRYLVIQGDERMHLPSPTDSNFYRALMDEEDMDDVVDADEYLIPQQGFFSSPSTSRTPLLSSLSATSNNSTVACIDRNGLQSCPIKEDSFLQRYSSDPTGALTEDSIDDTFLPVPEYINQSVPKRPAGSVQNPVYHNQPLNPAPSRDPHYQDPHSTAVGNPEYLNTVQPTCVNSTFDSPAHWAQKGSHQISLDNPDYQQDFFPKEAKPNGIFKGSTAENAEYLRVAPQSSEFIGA
Another data set has as its target ErbB2 WT (Homo sapiens (Human), UniProt P04626). Briefly: ErbB Enzyme Assay (HTRF KinEASE-TK), Assay 2. Type of data set: biochemical.
Where [2] appears, read: EGF-stimulated EGFR WT phosphorylation.
Setting [3] is: cellular ErbB2 YVMA phosphorylation.
Where [4] appears, read: cellular EGFR WT phosphorylation, EGF-stimulated.

BCRP, sequence (Q9UNQ0 whole entry): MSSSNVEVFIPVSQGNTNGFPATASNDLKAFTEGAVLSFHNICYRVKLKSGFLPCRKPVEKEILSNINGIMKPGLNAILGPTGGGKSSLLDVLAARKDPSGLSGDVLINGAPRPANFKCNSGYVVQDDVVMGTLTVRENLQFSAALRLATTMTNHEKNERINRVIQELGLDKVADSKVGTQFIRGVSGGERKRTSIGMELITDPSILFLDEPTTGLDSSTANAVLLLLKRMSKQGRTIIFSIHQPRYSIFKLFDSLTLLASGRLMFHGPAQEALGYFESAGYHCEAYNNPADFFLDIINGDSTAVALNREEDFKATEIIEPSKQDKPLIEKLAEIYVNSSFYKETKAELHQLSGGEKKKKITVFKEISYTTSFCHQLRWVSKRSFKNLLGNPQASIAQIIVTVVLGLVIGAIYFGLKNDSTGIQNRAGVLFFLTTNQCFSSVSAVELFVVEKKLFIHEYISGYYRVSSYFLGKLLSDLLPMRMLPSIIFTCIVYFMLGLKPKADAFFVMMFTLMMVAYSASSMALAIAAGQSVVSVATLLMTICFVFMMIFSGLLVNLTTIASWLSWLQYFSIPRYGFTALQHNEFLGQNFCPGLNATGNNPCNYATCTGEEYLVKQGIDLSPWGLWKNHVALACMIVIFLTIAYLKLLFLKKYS
ErbB2 WT, sequence (P04626 23-1255): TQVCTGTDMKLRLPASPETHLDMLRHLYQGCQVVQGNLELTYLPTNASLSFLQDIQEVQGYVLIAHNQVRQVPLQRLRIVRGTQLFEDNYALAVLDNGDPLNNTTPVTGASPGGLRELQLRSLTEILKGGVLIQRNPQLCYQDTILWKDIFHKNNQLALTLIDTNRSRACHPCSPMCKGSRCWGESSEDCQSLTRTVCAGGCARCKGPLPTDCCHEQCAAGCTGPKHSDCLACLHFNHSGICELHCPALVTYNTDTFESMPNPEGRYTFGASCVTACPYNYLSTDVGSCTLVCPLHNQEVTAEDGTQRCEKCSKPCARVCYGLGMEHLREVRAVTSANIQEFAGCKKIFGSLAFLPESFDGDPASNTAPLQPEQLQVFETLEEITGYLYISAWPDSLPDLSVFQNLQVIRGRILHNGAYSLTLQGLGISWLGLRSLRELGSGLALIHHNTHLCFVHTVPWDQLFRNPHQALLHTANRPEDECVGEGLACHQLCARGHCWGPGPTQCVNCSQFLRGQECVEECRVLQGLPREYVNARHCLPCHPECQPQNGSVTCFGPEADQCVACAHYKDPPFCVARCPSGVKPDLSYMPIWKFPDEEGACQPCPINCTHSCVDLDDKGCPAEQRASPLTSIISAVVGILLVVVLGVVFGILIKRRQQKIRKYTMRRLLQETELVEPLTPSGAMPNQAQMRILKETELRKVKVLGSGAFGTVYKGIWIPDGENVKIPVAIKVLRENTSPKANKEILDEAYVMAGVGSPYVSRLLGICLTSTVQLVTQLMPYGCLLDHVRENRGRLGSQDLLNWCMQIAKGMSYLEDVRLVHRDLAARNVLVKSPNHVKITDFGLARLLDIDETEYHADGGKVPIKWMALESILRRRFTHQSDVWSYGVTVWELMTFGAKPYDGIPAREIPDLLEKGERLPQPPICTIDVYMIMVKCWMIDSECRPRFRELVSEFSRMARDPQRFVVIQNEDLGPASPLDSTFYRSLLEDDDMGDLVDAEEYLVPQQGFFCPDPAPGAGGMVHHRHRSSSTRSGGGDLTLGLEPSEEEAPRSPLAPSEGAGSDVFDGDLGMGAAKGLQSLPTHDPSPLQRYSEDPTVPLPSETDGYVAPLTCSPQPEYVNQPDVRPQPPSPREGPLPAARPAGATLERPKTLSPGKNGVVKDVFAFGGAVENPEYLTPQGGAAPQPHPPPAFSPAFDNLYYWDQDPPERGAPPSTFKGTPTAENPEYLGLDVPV
ErbB2 with Exon 20 YVMA insertion (HER2-YVMA), sequence (P04626 other isoform, or with tags, fused parts or gaps ins YVMA behind 775): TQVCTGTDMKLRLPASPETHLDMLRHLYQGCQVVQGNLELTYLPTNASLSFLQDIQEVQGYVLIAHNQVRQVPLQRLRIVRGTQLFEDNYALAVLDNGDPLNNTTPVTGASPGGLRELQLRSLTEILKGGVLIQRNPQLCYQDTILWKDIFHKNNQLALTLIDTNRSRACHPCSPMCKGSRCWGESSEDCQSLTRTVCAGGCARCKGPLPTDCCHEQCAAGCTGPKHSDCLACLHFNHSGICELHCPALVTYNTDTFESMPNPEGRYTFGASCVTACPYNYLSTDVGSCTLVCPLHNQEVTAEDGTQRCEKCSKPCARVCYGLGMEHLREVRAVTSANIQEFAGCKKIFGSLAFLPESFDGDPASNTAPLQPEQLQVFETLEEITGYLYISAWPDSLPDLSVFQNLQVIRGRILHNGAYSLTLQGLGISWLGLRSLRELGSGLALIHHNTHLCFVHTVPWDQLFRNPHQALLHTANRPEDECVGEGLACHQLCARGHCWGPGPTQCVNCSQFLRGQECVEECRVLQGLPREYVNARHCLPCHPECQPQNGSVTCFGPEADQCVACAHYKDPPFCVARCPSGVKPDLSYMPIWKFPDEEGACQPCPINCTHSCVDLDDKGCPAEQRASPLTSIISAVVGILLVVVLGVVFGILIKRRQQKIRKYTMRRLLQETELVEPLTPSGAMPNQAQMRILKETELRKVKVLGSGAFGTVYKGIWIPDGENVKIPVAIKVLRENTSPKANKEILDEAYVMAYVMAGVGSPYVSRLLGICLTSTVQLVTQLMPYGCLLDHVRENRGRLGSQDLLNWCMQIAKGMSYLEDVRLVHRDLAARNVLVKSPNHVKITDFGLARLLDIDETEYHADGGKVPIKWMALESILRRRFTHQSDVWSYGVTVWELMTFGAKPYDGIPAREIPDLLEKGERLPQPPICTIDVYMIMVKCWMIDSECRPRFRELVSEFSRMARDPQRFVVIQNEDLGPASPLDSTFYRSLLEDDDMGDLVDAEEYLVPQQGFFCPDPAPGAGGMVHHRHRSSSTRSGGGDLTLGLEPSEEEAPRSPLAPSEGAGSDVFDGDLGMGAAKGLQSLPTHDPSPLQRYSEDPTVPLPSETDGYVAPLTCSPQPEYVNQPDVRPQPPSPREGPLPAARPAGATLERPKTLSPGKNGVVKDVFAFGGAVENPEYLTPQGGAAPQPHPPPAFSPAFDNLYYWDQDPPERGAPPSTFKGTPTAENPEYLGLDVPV

As for `C=CC(=O)N1CCN(c2ccc3ncnc(Nc4ccc(Oc5ccn6ncnc6c5)c(Cl)c4)c3n2)CC1` [Example 97, 1-(4-(4-((4-([1,2,4]triazolo[1,5-a]pyridin-7-yloxy)-3-chlorophenyl)amino)pyrido[3,2-d]pyrimidin-6-yl)piperazin-1-yl)prop-2-en-1-one], the IC50 turned out to be 3.2 nM in data set [1] (ErbB2 YVMA phosphorylation), 344 nM against EGFR (EGFR enzyme), 413 nM on EGFR wild type (EGFR WT) (setting [2]) and 3.2 nM against ErbB2 WT (ErbB2 WT enzyme). Also, on BCRP, the efflux ratio at 2 h, 1 µM is 47.
Take `C=CC(=O)N1[C@H](C)CN(c2ccc3ncnc(Nc4ccc(Oc5ccc6c(c5)ncn6C)c(C)c4)c3n2)C[C@@H]1C` [Example 106, 1-((2S,6R)-2,6-dimethyl-4-(4-((3-methyl-4-((1-methyl-1H-benzo[d]imidazol-5-yl)oxy)phenyl)amino)pyrido[3,2-d]pyrimidin-6-yl)piperazin-1-yl)prop-2-en-1-one]: the IC50 in data set [1] (ErbB2 YVMA phosphorylation) is 6 nM; against EGFR (EGFR enzyme), 7790 nM; against EGFR wild type (EGFR WT) (setting [2]), at least 5000 nM; on ErbB2 WT (ErbB2 WT enzyme) it was 18.5 nM. Besides, the efflux ratio at 2 h, 1 µM on BCRP amounted to 10.1.
`C=CC(=O)N1C[C@H](c2ccc3ncnc(Nc4ccc(Oc5ccn6ncnc6c5)c(C)c4F)c3n2)C[C@H]1COC` (mixture of isomers) [Example 306]: the IC50 amounted to 20.2 nM in data set [1] (setting [3]), 1930 nM against EGFR (EGFR enzyme assay), 3090 nM against EGFR wild type (EGFR WT) (setting [4]) and 59.2 nM on ErbB2 WT (ErbB2 WT enzyme assay). The efflux ratio at 2 h, 1 µM at BCRP was determined as 6.8.
Consider `C=CC(=O)N1CCC(c2ccc3ncnc(Nc4ccc(Oc5ccc6c(c5)ncn6C)c(C)c4)c3n2)CC1C` (stereo not drawn) [Example 123, 1-(2-methyl-4-(4-((3-methyl-4-((1-methyl-1H-benzo[d]imidazol-5-yl)oxy)phenyl)amino)pyrido[3,2-d]pyrimidin-6-yl)piperidin-1-yl)prop-2-en-1-one], for which the IC50 was 7.6 nM in data set [1] (ErbB2 YVMA phosphorylation), at least 10000 nM against EGFR (EGFR enzyme), at least 5000 nM against EGFR wild type (EGFR WT) (setting [2]) and 60.4 nM against ErbB2 WT (ErbB2 WT enzyme). At BCRP, the efflux ratio at 2 h, 1 µM worked out at 7.3.
In the case of `C=CC(=O)N1CC2(CCN2c2ccc3ncnc(Nc4ccc(Oc5ccn6ncnc6c5)c(C)c4F)c3n2)C1` [Example 289], the IC50 in data set [1] (setting [3]) is 53.7 nM; on EGFR (EGFR enzyme assay), 2870 nM; on EGFR wild type (EGFR WT) (setting [4]), at least 5000 nM; against ErbB2 WT (ErbB2 WT enzyme assay), 22.4 nM. The efflux ratio at 2 h, 1 µM at BCRP stood at 26.
In the same order, the values of `C=CC(=O)N1C[C@@H]2CN(c3ccc4ncnc(Nc5ccc(Oc6ccc7c(c6)ncn7C)c(C)c5F)c4n3)C[C@@H]21` [Example 323] are 23.8 nM, at least 10000 nM, at least 5000 nM, 36.4 nM and 6.7.
Turning to `C=CC(=O)N1C[C@H]2C[C@@H]1CN(c1ccc3ncnc(Nc4ccc(Oc5ccn6ncnc6c5)c(Cl)c4F)c3n1)C2` [Example 304], the IC50 in data set [1] (setting [3]) came out at 11.6 nM; against EGFR (EGFR enzyme assay), 757 nM; against EGFR wild type (EGFR WT) (setting [4]) it was 1670 nM; against ErbB2 WT (ErbB2 WT enzyme assay) it was 16.9 nM. Besides, on BCRP, the efflux ratio at 2 h, 1 µM is 13.8.
On the same counts, the results for `C=CC(=O)N1[C@H](C)CN(c2ccc3ncnc(Nc4ccc(Oc5cc(F)c6c(c5)ncn6C)c(C)c4)c3n2)C[C@@H]1C` [Example 359] are 21 nM, 3370 nM, at least 5000 nM, 47.2 nM and 14.4.
Turning to `C=CC(=O)N1CCC(c2ccc3ncnc(Nc4ccc(Oc5ccc6c(c5)ncn6C)c(C)c4)c3n2)CC1` [Example 34, 1-(4-(4-((3-methyl-4-((1-methyl-1H-benzo[d]imidazol-5-yl)oxy)phenyl)amino)pyrido[3,2-d]pyrimidin-6-yl)piperidin-1-yl)prop-2-en-1-one], the IC50 in data set [1] (ErbB2 YVMA phosphorylation) was 9.5 nM; at EGFR (EGFR enzyme), 6870 nM; against EGFR wild type (EGFR WT) (setting [2]), at least 5000 nM; at ErbB2 WT (ErbB2 WT enzyme), 28.7 nM. Moreover, on BCRP, the efflux ratio at 2 h, 1 µM was found to be 6.7.
Regarding `C=CC(=O)N1CCN(c2ccc3ncnc(Nc4cc(Cl)c(Oc5ccn6ncnc6c5)cc4F)c3n2)C[C@@H]1COC` [Example 346], the IC50 turned out to be 15.4 nM in data set [1] (setting [3]), 1370 nM against EGFR (EGFR enzyme assay), 1440 nM against EGFR wild type (EGFR WT) (setting [4]) and 14.3 nM at ErbB2 WT (ErbB2 WT enzyme assay). Besides, the efflux ratio at 2 h, 1 µM on BCRP was determined as 14.2.
Take `C=CC(=O)N1CCN(c2ccc3ncnc(Nc4ccc(Oc5cnc6c(c5)ncn6C)c(Cl)c4)c3n2)CC1` [Example 33, 1-(4-(4-((3-chloro-4-((3-methyl-3H-imidazo[4,5-b]pyridin-6-yl)oxy)phenyl)amino)pyrido[3,2-d]pyrimidin-6-yl)piperazin-1-yl)prop-2-en-1-one]: the IC50 worked out at 3.8 nM in data set [1] (ErbB2 YVMA phosphorylation), 1150 nM at EGFR (EGFR enzyme), 869 nM against EGFR wild type (EGFR WT) (setting [2]) and 15.8 nM at ErbB2 WT (ErbB2 WT enzyme). For the same molecule, the efflux ratio at 2 h, 1 µM at BCRP was determined as 42.7.
For `C=CC(=O)N1C[C@@H]2C[C@H]1CN2c1ccc2ncnc(Nc3cc(Cl)c(Oc4ccn5ncnc5c4)cc3F)c2n1` [Example 80, 1-((1S,4S)-5-(4-((4-([1,2,4]triazolo[1,5-a]pyridin-7-yloxy)-5-chloro-2-fluorophenyl)amino)pyrido[3,2-d]pyrimidin-6-yl)-2,5-diazabicyclo[2.2.1]heptan-2-yl)prop-2-en-1-one], the IC50 in data set [1] (ErbB2 YVMA phosphorylation) was 4.1 nM; against EGFR (EGFR enzyme), 218 nM; against EGFR wild type (EGFR WT) (setting [2]), 246 nM; at ErbB2 WT (ErbB2 WT enzyme), 17 nM. In addition, the efflux ratio at 2 h, 1 µM on BCRP is 12.4.
In the same order, the values of `C=CC(=O)N1CC[C@@H](c2ccc3ncnc(Nc4cc(C)c(Oc5ccc6c(c5)ncn6C)cc4F)c3n2)C1` (racemic) [Example 132, rac-(R)-1-(3-(4-((2-fluoro-5-methyl-4-((1-methyl-1H-benzo[d]imidazol-5-yl)oxy)phenyl)amino)pyrido[3,2-d]pyrimidin-6-yl)pyrrolidin-1-yl)prop-2-en-1-one] are 18.8 nM, at least 10000 nM, at least 5000 nM, 75.9 nM and 7.9.
With `C=CC(=O)N1C[C@@H]2CC[C@H]1CN(c1ccc3ncnc(Nc4ccc(Oc5ccn6ncnc6c5)c(C)c4F)c3n1)C2` (racemic) [Example 327], the IC50 in data set [1] (setting [3]) was determined as 9.3 nM; against EGFR (EGFR enzyme assay), 1160 nM; against EGFR wild type (EGFR WT) (setting [4]), 3500 nM; at ErbB2 WT (ErbB2 WT enzyme assay), 12.8 nM. For the same molecule, at BCRP, the efflux ratio at 2 h, 1 µM was 5.4.
Regarding `C=CC(=O)N1CCC(Sc2nc3c(Nc4ccc(Oc5ccc6c(c5)ncn6C)c(C)c4)ncnc3cc2OC)CC1` [Example 159, 1-(4-((7-methoxy-4-((3-methyl-4-((1-methyl-1H-benzo[d]imidazol-5-yl)oxy)phenyl)amino)pyrido[3,2-d]pyrimidin-6-yl)thio)piperidin-1-yl)prop-2-en-1-one], the IC50 came to 12 nM in data set [1] (ErbB2 YVMA phosphorylation), 452 nM on EGFR (EGFR enzyme), 493 nM against EGFR wild type (EGFR WT) (setting [2]) and 20.4 nM against ErbB2 WT (ErbB2 WT enzyme). For the same molecule, the efflux ratio at 2 h, 1 µM on BCRP is 15.
Consider `C=CC(=O)N1CCN(c2ccc3ncnc(Nc4ccc(Oc5ccc6c(c5)ncn6C)c(C)c4F)c3n2)CC1(C)C` [Example 75, 1-(4-(4-((2-fluoro-3-methyl-4-((1-methyl-1H-benzo[d]imidazol-5-yl)oxy)phenyl)amino)pyrido[3,2-d]pyrimidin-6-yl)-2,2-dimethylpiperazin-1-yl)prop-2-en-1-one], for which the IC50 was 13.7 nM in data set [1] (ErbB2 YVMA phosphorylation), at least 10000 nM on EGFR (EGFR enzyme), at least 5000 nM on EGFR wild type (EGFR WT) (setting [2]) and 65.2 nM against ErbB2 WT (ErbB2 WT enzyme). Further, the efflux ratio at 2 h, 1 µM at BCRP came to 3.8.
For `C=CC(=O)N1C[C@@H]2CC(c3ccc4ncnc(Nc5ccc(Oc6ccn7ncnc7c6)c(C)c5F)c4n3)C[C@H]1C2` (stereo partly drawn) [Example 268], the IC50 in data set [1] (setting [3]) is 33.8 nM; against EGFR (EGFR enzyme assay) it was 4780 nM; on EGFR wild type (EGFR WT) (setting [4]), at least 5000 nM; at ErbB2 WT (ErbB2 WT enzyme assay), 156 nM. Also, on BCRP, the efflux ratio at 2 h, 1 µM was 11.8.
For `C=CC(=O)N1CCN(c2ccc3ncnc(Nc4ccc(Oc5ccc6c(c5)ncn6C)c(C)c4)c3n2)CC1(C)C` [Example 103, 1-(2,2-dimethyl-4-(4-((3-methyl-4-((1-methyl-1H-benzo[d]imidazol-5-yl)oxy)phenyl)amino)pyrido[3,2-d]pyrimidin-6-yl)piperazin-1-yl)prop-2-en-1-one], the IC50 in data set [1] (ErbB2 YVMA phosphorylation) is 4.6 nM; against EGFR (EGFR enzyme), at least 10000 nM; against EGFR wild type (EGFR WT) (setting [2]) it was 1320 nM; against ErbB2 WT (ErbB2 WT enzyme), 2.9 nM. The efflux ratio at 2 h, 1 µM at BCRP is 10.9.
On the same counts, the results for `C=CC(=O)N1CCN(c2nc3c(Oc4ccc(Oc5ccc6c(c5)ncn6C)c(C)c4)ncnc3cc2OC)CC1` [Example 41, 1-(4-(7-methoxy-4-(3-methyl-4-((1-methyl-1H-benzo[d]imidazol-5-yl)oxy)phenoxy)pyrido[3,2-d]pyrimidin-6-yl)piperazin-1-yl)prop-2-en-1-one] are 31 nM, 5070 nM, at least 5000 nM, 130 nM and 16.7.
Take `C=CC(=O)N1CC2CC(C1)N2c1ccc2ncnc(Nc3ccc(Oc4ccc5c(c4)ncn5C)c(C)c3F)c2n1` [Example 335]: the IC50 in data set [1] (setting [3]) was 15.4 nM; at EGFR (EGFR enzyme assay) it was at least 10000 nM; on EGFR wild type (EGFR WT) (setting [4]), at least 5000 nM; on ErbB2 WT (ErbB2 WT enzyme assay) it was 164 nM. On BCRP, the efflux ratio at 2 h, 1 µM is 3.
As for `C=CC(=O)N1C[C@@H]2CN(c3ccc4ncnc(Nc5ccc(Oc6ccn7ncnc7c6)c(C)c5F)c4n3)C[C@@H]21` [Example 318], the IC50 was 29.8 nM in data set [1] (setting [3]), 1380 nM against EGFR (EGFR enzyme assay), 2050 nM on EGFR wild type (EGFR WT) (setting [4]) and 47.3 nM on ErbB2 WT (ErbB2 WT enzyme assay). Also, on BCRP, the efflux ratio at 2 h, 1 µM turned out to be 12.8.
